The values that follow come from patent publication US20070026065A1, “Solid, modified-release pharmaceutical dosage forms which can be administered orally” (Bayer HealthCare AG, priority 2004, published 2007).

A word on the solubility: it is the dissolved amount per volume that the medium holds. Read a high solubility as much dissolved substance. Broadly, the half-life is the time needed for the level to fall by half in the phase considered. Read a low half-life as rapid decline.

≈ marks a conversion by molar mass, not a printed value.

One series is described as follows: Solubility in water. It is filed as physicochemical. Particulars: 25° C. An excerpt: (§1) Accordingly, for the desired once a day administration, specific pharmaceutical formulations with modified release of the active ingredient (I), taking account of its physicochemical and biological properties, are required.
A short description of a further series: Plasma half-life. In kind it is in vivo.
Description: as §1

Consider `O=C(NC[C@H]1CN(c2ccc(N3CCOCC3=O)cc2)C(=O)O1)c1ccc(Cl)s1` [active ingredient (I), 5-Chloro-N-({(5S)-2-oxo-3-[4-(3-oxo-4-morpholinyl)phenyl]-1,3-oxazolidin-5-yl}methyl)-2-thiophenecarboxamide], for which, in the series “Solubility in water”, the solubility was around 7 µg/mL (≈ 16.1 µM). In “Plasma half-life”, the half-life was around 7 h.
